Several values for one entry are separate records, joined by “and”; a condition that tells them apart may be missing. Identical values can stand only once. Toxic doses and inconclusive results are not listed. The calls were made as follows: active = survival T/C of 150% or more; inactive = T/C below 125% in these data. Residues, ends and D or L forms follow the SMILES beside them. *: point of attachment. Boc = CC(C)(C)OC(=O)*; OBn = c1ccc(CO*)cc1
Tested on: BDF1 mice, P388 leukemia ip, median survival T/C
Test: NCI In Vivo Anticancer Drug Screen. Data for tumor model P388 Leukemia (intraperitoneal) in B6D2F1 (BDF1) mice
Settings: endpoint: median survival time, higher = longer survival
In short: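 T/C = treated-group survival ÷ vehicle-control survival; tumour transplanted into mice before dosing.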

[1] = dose: 50.0 mg/kg/injection, schedule: Q01DX009 (ip), vehicle: saline with Tween-80
[2] = dose: 100.0 mg/kg/injection, schedule: Q01DX009 (ip), vehicle: saline with Tween-80
[3] = dose: 200.0 mg/kg/injection, schedule: Q01DX009 (ip), vehicle: saline with Tween-80
[4] = dose: 100.0 mg/kg/injection, schedule: Q04DX003 (ip), vehicle: saline with Tween-80
[5] = dose: 200.0 mg/kg/injection, schedule: Q04DX003 (ip), vehicle: saline with Tween-80
[6] = dose: 50.0 mg/kg/injection, schedule: Q01DX009 (ip), vehicle: Klucel (hydroxypropylcellulose) (HPC)
[7] = dose: 100.0 mg/kg/injection, schedule: Q04DX003 (ip), vehicle: other
[8] = dose: 200.0 mg/kg/injection, schedule: Q04DX003 (ip), vehicle: other
[9] = dose: 400.0 mg/kg/injection, schedule: Q04DX003 (ip), vehicle: other
[10] = dose: 50.0 mg/kg/injection, schedule: Q04DX003 (ip), vehicle: saline with Tween-80
[11] = dose: 25.0 mg/kg/injection, schedule: Q01DX009 (ip), vehicle: saline with Tween-80
[12] = dose: 100.0 mg/kg/injection, schedule: Q04DX003 (ip), vehicle: Klucel (hydroxypropylcellulose) (HPC)
[13] = dose: 400.0 mg/kg/injection, schedule: Q04DX003 (ip), vehicle: Klucel (hydroxypropylcellulose) (HPC)

Measured: T/C

CCC(C)NC(=S)NN (stereo not drawn)
inactive: dose: 10.0 mg/kg/injection, schedule: Q01DX009 (ip), vehicle: saline with Tween-80 95 % of control | dose: 20.0 mg/kg/injection, schedule: Q01DX009 (ip), vehicle: saline with Tween-80 100 % of control | dose: 40.0 mg/kg/injection, schedule: Q01DX009 (ip), vehicle: saline with Tween-80 95 % of control

Cc1cccc(C)c1NC(=S)N1CCC(CCCC2CCN(C(=S)Nc3c(C)cccc3C)CC2)CC1
inactive: [1] 86 % of control | [2] 90 % of control | [3] 104 % of control

CC(=O)N/N=C(/C)C(O)(c1ccccc1)c1ccccc1
inactive: [2] 99 % of control | [4] 103 % of control | [3] 100 % of control | [5] 99 % of control | dose: 400.0 mg/kg/injection, schedule: Q01DX009 (ip), vehicle: saline with Tween-80 99 % of control | dose: 400.0 mg/kg/injection, schedule: Q04DX003 (ip), vehicle: saline with Tween-80 87 % of control

CC1NC(=O)C2CCCN2C(=O)C2CCCN2C(=O)C(C(C)C)NC(=O)C(Cc2ccccc2)NC(=O)C(Cc2ccccc2)NC(=O)C2CCCN2C(=O)C2CCCN2C(=O)C(Cc2ccccc2)NC(=O)C(Cc2ccccc2)NC1=O (stereo not drawn) (cyclo(AFFPPFFVPP); configuration not given here)
inactive: dose: 0.5 mg/kg/injection, schedule: Q01DX009 (ip), vehicle: saline 101 % of control | dose: 1.0 mg/kg/injection, schedule: Q01DX009 (ip), vehicle: saline 104 % of control | dose: 2.0 mg/kg/injection, schedule: Q01DX009 (ip), vehicle: saline 104 % of control

CC(C)(C)OC(=O)NCC(=O)NCC(=O)NCC(=O)OCc1ccccc1 (Boc-Gly-Gly-Gly-OBn)
inactive: dose: 50.0 mg/kg/injection, schedule: Q01DX005 (ip), vehicle: saline with Tween-80 95 % of control | dose: 100.0 mg/kg/injection, schedule: Q01DX005 (ip), vehicle: saline with Tween-80 98 % of control

CCCOc1cc([N+](=O)[O-])cc([N+](=O)[O-])c1
inactive: dose: 100.0 mg/kg/injection, schedule: Q01DX001 (ip), vehicle: saline with Tween-80 104 % of control | dose: 200.0 mg/kg/injection, schedule: Q01DX001 (ip), vehicle: saline with Tween-80 94 % of control

C1CC2C(CCCC23OCCO3)C2(C1)OCCO2 (stereo not drawn)
inactive: [6] 113 % of control | dose: 100.0 mg/kg/injection, schedule: Q01DX009 (ip), vehicle: Klucel (hydroxypropylcellulose) (HPC) 86 % of control | [7] 100 % of control | dose: 200.0 mg/kg/injection, schedule: Q01DX009 (ip), vehicle: Klucel (hydroxypropylcellulose) (HPC) 95 % of control | [8] 95 % of control | [9] 100 % of control

C=C(COc1ccc(Cl)cc1)COc1ccc(Cl)cc1
inactive: dose: 50.0 mg/kg/injection, schedule: Q01DX001 (ip), vehicle: other 103 % of control | dose: 50.0 mg/kg/injection, schedule: Q04DX003 (ip), vehicle: other 100 % of control | dose: 100.0 mg/kg/injection, schedule: Q01DX001 (ip), vehicle: other 100 % of control | [7] 91 % of control | dose: 200.0 mg/kg/injection, schedule: Q01DX001 (ip), vehicle: other 94 % of control | [8] 101 % of control | dose: 400.0 mg/kg/injection, schedule: Q01DX001 (ip), vehicle: other 102 % of control | [9] 93 % of control

CS(=O)(=O)OCc1c(O)c2c(c(O)c1COS(C)(=O)=O)C(=O)C=CC2=O
inactive: dose: 3.12 mg/kg/injection, schedule: Q01DX009 (ip), vehicle: water 103 % of control | dose: 3.12 mg/kg/injection, schedule: Q04DX003 (ip), vehicle: water 102 % of control | dose: 6.25 mg/kg/injection, schedule: Q01DX009 (ip), vehicle: water 114 % of control | dose: 6.25 mg/kg/injection, schedule: Q04DX003 (ip), vehicle: water 102 % of control | dose: 12.5 mg/kg/injection, schedule: Q01DX009 (ip), vehicle: water 106 % of control | dose: 12.5 mg/kg/injection, schedule: Q04DX003 (ip), vehicle: water 93 % of control | dose: 25.0 mg/kg/injection, schedule: Q01DX009 (ip), vehicle: water 107 % of control | dose: 25.0 mg/kg/injection, schedule: Q04DX003 (ip), vehicle: water 101 % of control | dose: 50.0 mg/kg/injection, schedule: Q01DX009 (ip), vehicle: water 116 % of control | dose: 50.0 mg/kg/injection, schedule: Q04DX003 (ip), vehicle: water 102 % of control | dose: 100.0 mg/kg/injection, schedule: Q01DX009 (ip), vehicle: water 94 % of control | dose: 100.0 mg/kg/injection, schedule: Q04DX003 (ip), vehicle: water 108 % of control and 109 % of control

CC(Cc1ccccc1)C(N)=O (stereo not drawn)
inactive: [10] 105 % of control | [4] 98 % of control | [5] 113 % of control

CCC(C)(O)C#CC#CC(C)(O)CC (stereo not drawn)
inactive: dose: 12.5 mg/kg/injection, schedule: Q01DX009 (ip), vehicle: Klucel (hydroxypropylcellulose) (HPC) 100 % of control | dose: 12.5 mg/kg/injection, schedule: Q04DX003 (ip), vehicle: Klucel (hydroxypropylcellulose) (HPC) 100 % of control | dose: 25.0 mg/kg/injection, schedule: Q01DX009 (ip), vehicle: Klucel (hydroxypropylcellulose) (HPC) 100 % of control | dose: 25.0 mg/kg/injection, schedule: Q04DX003 (ip), vehicle: Klucel (hydroxypropylcellulose) (HPC) 90 % of control | [6] 113 % of control | dose: 50.0 mg/kg/injection, schedule: Q04DX003 (ip), vehicle: Klucel (hydroxypropylcellulose) (HPC) 95 % of control

C[C@]12C=CC(=O)C=C1CC[C@@H]1[C@@H]2[C@@H](O)C[C@@]2(C)[C@H]1CC[C@]2(O)C(=O)COC(=O)CCC1CCCC1
inactive: [11] 113 % of control | [1] 109 % of control | [2] 95 % of control and 100 % of control

O=[N+]([O-])c1ccc(C(Br)C(Br)c2ccccc2Cl)cc1 (stereo not drawn)
inactive: [12] 100 % of control | dose: 200.0 mg/kg/injection, schedule: Q04DX003 (ip), vehicle: Klucel (hydroxypropylcellulose) (HPC) 100 % of control | [13] 100 % of control

CCCCC(CC)COP(=O)(CC(CC)CCCC)OCC(CC)CCCC (stereo not drawn)
inactive: [11] 100 % of control

CC(C)(CC(=O)O)c1ccccc1
inactive: dose: 25.0 mg/kg/injection, schedule: Q04DX003 (ip), vehicle: saline 89 % of control and 109 % of control | dose: 50.0 mg/kg/injection, schedule: Q04DX003 (ip), vehicle: saline 104 % of control and 120 % of control | dose: 100.0 mg/kg/injection, schedule: Q04DX003 (ip), vehicle: saline 102 % of control and 106 % of control | dose: 200.0 mg/kg/injection, schedule: Q04DX003 (ip), vehicle: saline 102 % of control and 110 % of control and 113 % of control | dose: 400.0 mg/kg/injection, schedule: Q04DX003 (ip), vehicle: saline 105 % of control

c1ccc(CCN2CCC(CCc3c[nH]c4ccccc34)CC2)cc1
inactive: dose: 12.5 mg/kg/injection, schedule: Q01DX010 (ip), vehicle: saline 100 % of control | dose: 25.0 mg/kg/injection, schedule: Q01DX010 (ip), vehicle: saline 109 % of control | dose: 50.0 mg/kg/injection, schedule: Q01DX010 (ip), vehicle: saline 122 % of control | dose: 100.0 mg/kg/injection, schedule: Q01DX010 (ip), vehicle: saline 114 % of control

N#CN=CN1CC=C(c2ccc(Cl)cc2)CC1
inactive: [1] 98 % of control | [2] 93 % of control | [3] 94 % of control

CN(C)c1nn2c(-c3ccccc3)nnc2s1
inactive: dose: 100.0 mg/kg/injection, schedule: Q01DX009 (ip), vehicle: saline 86 % of control | dose: 200.0 mg/kg/injection, schedule: Q01DX009 (ip), vehicle: saline 90 % of control | dose: 400.0 mg/kg/injection, schedule: Q01DX009 (ip), vehicle: saline 100 % of control

c1ccc2c(c1)[nH]c1nc3ccncc3nc12
inactive: [10] 90 % of control | [4] 95 % of control

COc1ccc(C(=O)c2ccccc2)cc1OC
inactive: [12] 100 % of control | [13] 100 % of control

COCCCNC1=C(C#N)C(=O)NC2(CCCC2)S1
inactive: [1] 90 % of control | [2] 90 % of control | [3] 104 % of control

From PubChem BioAssay AID328 (DTP/NCI, 2004)
